Results published in patent publication US20220054617A1, “SUBUNIT VACCINE CONSTRUCTS FOR FLAVIVIRUSES” (priority 2018, published 2022).

What was measured:
albumin = conditions: human, non-human primate, pig, rabbit, rat, mouse; cited from earlier work
TLR-7 = TLR-7 (Homo sapiens, UniProt Q9NYK1); conditions: in vitro
TLR-8 = TLR-8 (Homo sapiens, UniProt Q9NR97); conditions: in vitro
[1] = system: human whole blood or PBMCs

Sequence of TLR-7 (Q9NYK1 27-1049, species assumed): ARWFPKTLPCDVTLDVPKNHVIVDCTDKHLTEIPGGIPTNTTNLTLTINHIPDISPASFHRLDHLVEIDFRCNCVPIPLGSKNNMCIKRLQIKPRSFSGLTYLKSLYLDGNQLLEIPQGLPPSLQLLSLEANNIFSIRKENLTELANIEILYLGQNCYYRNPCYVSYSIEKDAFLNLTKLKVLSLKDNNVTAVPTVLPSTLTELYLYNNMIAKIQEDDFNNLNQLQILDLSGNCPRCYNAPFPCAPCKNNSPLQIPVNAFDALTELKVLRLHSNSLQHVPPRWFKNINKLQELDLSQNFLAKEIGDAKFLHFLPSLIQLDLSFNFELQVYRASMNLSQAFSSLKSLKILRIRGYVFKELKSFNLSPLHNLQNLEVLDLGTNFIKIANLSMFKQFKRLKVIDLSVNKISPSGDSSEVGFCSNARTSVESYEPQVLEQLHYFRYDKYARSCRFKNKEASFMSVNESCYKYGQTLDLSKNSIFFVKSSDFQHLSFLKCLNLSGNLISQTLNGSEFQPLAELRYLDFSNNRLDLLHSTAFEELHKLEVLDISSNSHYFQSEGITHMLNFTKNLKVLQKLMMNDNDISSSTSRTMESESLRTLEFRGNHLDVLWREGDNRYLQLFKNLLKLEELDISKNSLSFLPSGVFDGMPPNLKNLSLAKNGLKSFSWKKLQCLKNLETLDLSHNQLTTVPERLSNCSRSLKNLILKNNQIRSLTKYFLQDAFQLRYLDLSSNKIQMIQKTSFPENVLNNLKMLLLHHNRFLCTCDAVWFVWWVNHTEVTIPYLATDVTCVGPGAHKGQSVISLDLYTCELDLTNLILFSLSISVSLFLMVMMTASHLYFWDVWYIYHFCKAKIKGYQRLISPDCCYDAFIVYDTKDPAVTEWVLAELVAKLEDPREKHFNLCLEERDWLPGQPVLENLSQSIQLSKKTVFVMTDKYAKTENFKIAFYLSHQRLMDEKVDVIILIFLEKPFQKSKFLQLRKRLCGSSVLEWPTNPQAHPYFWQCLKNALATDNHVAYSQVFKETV
Sequence of TLR-8 (Q9NR97 27-1041): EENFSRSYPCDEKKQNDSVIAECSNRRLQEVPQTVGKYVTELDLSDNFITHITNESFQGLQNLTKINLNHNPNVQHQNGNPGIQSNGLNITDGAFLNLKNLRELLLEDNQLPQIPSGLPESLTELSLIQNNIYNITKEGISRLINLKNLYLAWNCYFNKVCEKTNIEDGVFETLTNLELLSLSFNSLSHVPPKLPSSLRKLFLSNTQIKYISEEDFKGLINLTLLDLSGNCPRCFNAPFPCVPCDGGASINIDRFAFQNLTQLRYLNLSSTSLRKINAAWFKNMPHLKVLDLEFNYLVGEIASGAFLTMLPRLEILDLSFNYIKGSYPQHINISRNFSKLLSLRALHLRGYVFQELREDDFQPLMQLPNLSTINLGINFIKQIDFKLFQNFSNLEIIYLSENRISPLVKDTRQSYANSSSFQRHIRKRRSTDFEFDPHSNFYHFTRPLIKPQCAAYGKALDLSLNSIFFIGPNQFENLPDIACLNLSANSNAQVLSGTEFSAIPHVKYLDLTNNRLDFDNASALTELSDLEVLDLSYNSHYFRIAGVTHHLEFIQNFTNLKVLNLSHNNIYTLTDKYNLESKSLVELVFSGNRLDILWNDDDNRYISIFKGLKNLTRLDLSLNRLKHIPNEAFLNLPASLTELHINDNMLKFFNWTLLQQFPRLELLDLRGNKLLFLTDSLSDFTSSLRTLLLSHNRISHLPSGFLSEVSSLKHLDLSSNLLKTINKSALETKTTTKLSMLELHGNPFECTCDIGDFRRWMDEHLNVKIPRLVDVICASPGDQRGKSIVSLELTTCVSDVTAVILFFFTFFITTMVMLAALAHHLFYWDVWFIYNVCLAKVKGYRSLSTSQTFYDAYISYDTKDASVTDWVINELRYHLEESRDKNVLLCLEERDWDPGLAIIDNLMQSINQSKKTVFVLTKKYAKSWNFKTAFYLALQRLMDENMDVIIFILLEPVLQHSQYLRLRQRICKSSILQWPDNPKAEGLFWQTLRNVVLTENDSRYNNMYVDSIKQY

| Substance | binding to albumin (albumin) | activity in TLR-7 primary assay (TLR-7) | activity in TLR-8 primary assay (TLR-8) | cytokine induction [1] | adjuvant effect (ZIKV; in vivo) | elicitation of neutralizing antibodies after the first boost (ZIKV; with the ZIKV antigen, several candidate adjuvants examined, preliminary screens) |
| --- | --- | --- | --- | --- | --- | --- |
| SGP portion: portion of the Streptococcal G protein used as N-terminal tag, SEQ ID NO: 14 (LAEAKVLANRELDKYGVSDYYKNLINNAKTVEGVKALIDEILAALPK) | good binding |  |  |  |  |  |
| covalent conjugate of an imidazoquinoline TLR7/TLR8 dual agonist [5-(3-(aminomethyl)benzyl)-3-pentylquinolin-2-amine] with hyaluronic acid [EY-4-143] |  | inactive | inactive | silent | potent adjuvant | consistently elicit neutralizing antibodies after the first boost |
